Experimental data as given in patent publication US20030077653A1, “Method for the identification of active site protease inactivators” (The University of Georgia Research Foundation, Inc., priority 2000, published 2003).
Starred links: 1 amine or outer side, 2 acyl side, 3 side chain; linkers in the order of their positions; H or OH if unused. Residues, ends and D or L forms follow the SMILES beside them. *: point of attachment. AFC = O=c1cc(C(F)(F)F)c2ccc(N*)cc2o1; Morpholide = C1CN(*)CCO1; Cbz = O=C(OCc1ccccc1)*; CO = O=C([*:1])[*:2]; CH2F = FC*

Tests used:
Trypsin = experiment: Differential cleavage (selectivity) test; assay type: biochemical, human; settings: pH 8.0, Z-R-AFC
Description: (§1) In order to perform the assay, the vehicle (for Step VI) or inhibitor (for Step IX) were incubated with the appropriate substrate in the correct assay buffer and allowed to equilibrate. Subsequently, the protease was added, and the assay was allowed to incubate for an appropriate time. The concentrations used in this experiment were as follows: Vehicle was set up at 4×10^−5 M in final assay buffer; Inhibitor was set up at 3×10^−10 M in the final assay buffer. Accordingly, the dosages employed should be the minimal amount of vehicle or inhibitor necessary to induce inhibition. […] Substrates were set up based upon the preferred substrate for cleavage of the particular enzyme.
(§2) Positive controls were set up similarly as described for test controls, except that solvent was added in substitution for the inhibitor or vehicle (in a volume equal to the volume of inhibitor or vehicle addition). All of the inhibitors and vehicles could be dissolved in dimethylsulfoxide (DMSO), and therefore, this was the solvent of choice. Negative controls were set up by adding the inhibitor or vehicle and the preferred substrates in a tube without the protease. All potential non-proteolytic liberation of AFC was therefore controlled for in this tube (a feature which also insured stability of the AFC substrates, since these substrates will freely liberate AFC when unstable).
(§3) All controls were set up in triplicate, and experiments were repeated a minimum of five times.
(§4) Percent inhibition was calculated as: [formula]
(§5) In this preliminary test, we employed the following human-derived enzymes (with indicated mechanistic class): Cathepsin B (cysteine), Cathepsin L (cysteine), Cathepsin H (cysteine), Cathepsin D (aspartic) Trypsin (serine), the purified Taenia solium cysteine protease, and the Taenia solium crude mix. Cathepsin B was prepared in an assay buffer of 10 mM L-cysteine in 0.4 M Citrate buffer, pH 6. 1, using Z-ARR-AFC as the cleavage substrate. Cathepsin L was prepared in an assay buffer of 10 mM L-cysteine in 0.4 M Citrate buffer, pH 5.5, using Z-FR-AFC as the cleavage substrate. Cathepsin H was prepared in an assay buffer of 10 mM L-cysteine in 0.15 M PBS buffer, pH 6.8, using L- R-AFC as the cleavage substrate. Cathepsin D was prepared in an assay buffer of 0.15 M PBS, pH 7.1, using Z-RGFFP-AFC as the cleavage substrate. Trypsin was prepared in an assay buffer of 0.15 M PBS, pH 8.0, supplemented with 100 mM CaCl2 and with Z-R-AFC as the cleavage substrate. Enzyme was incubated so that it was at least 50 times less than the concentration of substrate in order to insure saturating conditions.

Cathepsin H = molecular target: T1, Cathepsin H (Homo sapiens, UniProt P09668); experiment: Differential cleavage (selectivity) test; assay type: biochemical; settings: pH 6.8, L-R-AFC
T1 sequence (P09668 98-335): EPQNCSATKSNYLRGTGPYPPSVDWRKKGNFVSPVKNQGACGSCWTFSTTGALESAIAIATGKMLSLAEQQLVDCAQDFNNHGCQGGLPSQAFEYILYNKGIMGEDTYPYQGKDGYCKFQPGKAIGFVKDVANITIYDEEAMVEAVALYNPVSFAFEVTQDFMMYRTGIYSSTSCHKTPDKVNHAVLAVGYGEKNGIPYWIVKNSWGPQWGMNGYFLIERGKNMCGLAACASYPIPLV
Description: as §1, §2, §3, §4, §5

Cathepsin B = Cathepsin B (Homo sapiens, UniProt P07858); experiment: Differential cleavage (selectivity) test; assay type: biochemical; settings: pH 6.1, Z-ARR-AFC
Description: as §1, §2, §3, §4, §5

Cathepsin D = Cathepsin D (Homo sapiens, UniProt P07339); experiment: Differential cleavage (selectivity) test; assay type: biochemical; settings: pH 7.1, Z-RGFFP-AFC
Chain of Cathepsin D (P07339 65-412): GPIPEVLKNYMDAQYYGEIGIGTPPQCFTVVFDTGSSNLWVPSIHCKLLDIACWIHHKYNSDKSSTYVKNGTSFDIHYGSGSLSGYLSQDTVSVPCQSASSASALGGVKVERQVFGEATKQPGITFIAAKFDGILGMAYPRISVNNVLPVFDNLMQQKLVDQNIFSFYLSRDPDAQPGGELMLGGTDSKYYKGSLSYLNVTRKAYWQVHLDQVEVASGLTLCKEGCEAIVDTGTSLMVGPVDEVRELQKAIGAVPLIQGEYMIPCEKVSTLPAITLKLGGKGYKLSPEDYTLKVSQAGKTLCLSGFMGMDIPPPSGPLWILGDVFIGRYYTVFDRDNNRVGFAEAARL
Description: as §1, §2, §3, §4, §5

[1] = Observation of side effects in treated mice; assay type: in vivo; settings: BALB/c mice; for side effects in mice, long-term study: 30 days treatment, 5 months follow-up
Description: FIG. 8. […] Each treated mouse was pre-injected intraperitoneally with inhibitor for two days. During treatment phase, each treated mouse received 1.48×10^−2 μg/μl of N2 daily for three weeks and every other day during the last week. Injections were carried out in 150 μl of dimethyl sulfoxide for each mouse. Both treated groups and positive controls were challenged intraperitoneally with 10 Taenia crassiceps cysts in 200 μl 0.15M PBS at the time of initial infection. After one month of infection, both groups were euthanized and cysts removed by washing with sterile 0.15M PBS. A minimum of two attached cysts were scored as multilobed (ML). […] (B) Graphically represents the effect of protease inhibitor treatment of BALB/c mice challenged with Taenia crassiceps cysts over a long-term period. Mice were divided into treated and untreated groups (5 mice/group).Each mouse in the treated group was pre-injected intraperitoneally with inhibitor for two days. Subsequently, all groups were challenged with 10 T. crassiceps cysts in 200 μl of 0.15M PBS. Treatment with inhibitor or placebo (0.15M PBS) was carried out every day for 30 days post-challenge. Cysts were left alone (untreated) for 5 months, and then euthanized. Cysts were then counted by visual inspection. Percent protection is based on the reduction of the total cyst number in comparison to control mice, which never received any treatment.
Mice in all groups survived without noticeable side effects (e.g., coat condition, tail dragging or paresis, etc).
Long-term studies were also conducted to determine over how long a period these inhibitors would maintain a protective effect. In a representative experiment shown here, mice were divided into treated and untreated groups (5 mice/group). Each mouse in the treated group was pre-injected intraperitoneally with inhibitor for two days. Subsequently, all groups were challenged with 10 T. crassiceps cysts in 200 μl 0.1 5M PBS. Treatment with inhibitor or placebo (0. 15M PBS) was carried out every day for 30 days post- challenge. […] Cysts were then counted by visual inspection. […]

CC(C)C[C@H](NC(=O)N1CCOCC1)C(=O)N[C@@H](Cc1ccc(O)cc1)C(=O)Nc1ccc2c(C(F)(F)F)cc(=O)oc2c1 [Mu-LY-AFC, Mu-Leu-Tyr-AFC] ({Morpholide-CO}-Leu-Tyr-{AFC})
Percent inhibition of Trypsin (serine) (Trypsin; vehicle 4×10^−5 M): 0%
Percent inhibition of Cathepsin H (cysteine) (Cathepsin H; vehicle 4×10^−5 M): 0%
Percent inhibition of Cathepsin B (cysteine) (Cathepsin B; vehicle 4×10^−5 M): 0%
Percent inhibition of Cathepsin D (aspartic) (Cathepsin D; vehicle 4×10^−5 M): 0%

CC(C)C[C@H](NC(=O)[C@H](CC(C)C)NC(=O)[C@H](CC(C)C)NC(=O)OCc1ccccc1)C(=O)CF [Z-LLL-FMK, Z-Leu-Leu-Leu-fluoromethylketone] (Cbz-Leu-Leu-Leu-CH2F)
side effects in mice, long-term study [1]: no side effects
Percent inhibition of Trypsin (serine) (Trypsin; inhibitor 3×10^−10 M): 0%
Percent inhibition of Cathepsin H (cysteine) (Cathepsin H; inhibitor 3×10^−10 M): 0%
Percent inhibition of Cathepsin B (cysteine) (Cathepsin B; inhibitor 3×10^−10 M): 0%
Percent inhibition of Cathepsin D (aspartic) (Cathepsin D; inhibitor 3×10^−10 M): 0%

CC(C)C[C@H](NC(=O)OCc1ccccc1)C(=O)N[C@@H](CC(C)C)C(=O)N[C@@H](Cc1ccc(O)cc1)C(=O)CF [Z-LLY-FMK, Z-Leu-Leu-Tyr-FMK] (Cbz-Leu-Leu-Tyr-CH2F)
side effects in mice, long-term study [1]: no side effects
side effects / inhibitor toxicity in mice, short-term studies ([1]; one month, visual inspection): no mice showed effects of inhibitor toxicity
Percent inhibition of Trypsin (serine) (Trypsin; inhibitor 3×10^−10 M): 0%
Percent inhibition of Cathepsin H (cysteine) (Cathepsin H; inhibitor 3×10^−10 M): 0%
Percent inhibition of Cathepsin B (cysteine) (Cathepsin B; inhibitor 3×10^−10 M): 0%
Percent inhibition of Cathepsin D (aspartic) (Cathepsin D; inhibitor 3×10^−10 M): 0%
